Consider three molecules from patent publication EP0097071A1, “Benzhydryl sulfinylacetamide derivatives and their therapeutical use” (LABORATOIRE L. LAFON Société anonyme dite:, priority 1982, dated 1983).

Common to all, as to assay type: in vivo
One data set relates to SNC. Nature of the data set: Essential activity on the CNS (Tableau I and conclusions of the neuropsychopharmacological study). To be noted: in vivo. An excerpt: Dans le tableau I ci-après, on a consigné un certain nombre de composés selon la formule I de façon nullement limitative, en mentionnant l'activité essentielle sur le SNC.
Les composés de formule I agissent tous sur le SNC. Les produits des exemples 1-3 et 7-8 sont des agents stimulants, en revanche les produits des exemples 4-6 sont des agents sédatifs.

Data set [1] deals with souris mâle. Put plainly: Pentobarbital-induced sleep duration. An excerpt:
Les composés selon l'invention se distinguent du benzhydrylsulfinylacétamide (CRL 40476) précité par une différence d'action vis-à-vis du sommeil barbiturique. […]. Cette différence d'action qui est intéressante sur le plan thérapeutique est illustrée par le tableau IV

Data set [2] relates to souris mâle. Nature of the data set: Toxicity, DL-0. To be noted: i.p. On the procedure:
(§1) On a résumé ci-après les résultats des essais pharmacologiques qui ont été entrepris avec les produits selon la présente addition. Dans ces essais, les produits de formule I à étudier ont été administrés par voie intrapéritonéale, en suspension dans une solution aqueuse de gomme arabique, sous un volume de 20 ml/kg chez la souris mâle et sous un volume de 5 ml/kg chez le rat mâle.
La toxicité a été étudiée chez la souris mâle. Les résultats relatifs à la DL-0 (dose minimale non mortelle) sont donnés dans le tableau II ci-après.

In another data set the test system is souris mâles. Put plainly: Global behaviour and reactivities, mouse. To be noted: souris; doses faibles et moyennes. The method, then:
as §1
Pour apprécier le comportement global et les réactivités, des lots de six animaux (souris mâles ou rats mâles) ont été observés avant administration de chaque produit, puis 15 min, 30 min, 1 h, 2 h, 3 h et 24 h après administration de chaque produit. Les résultats sont consignés dans le tableau III ci-après, […]

The subject of data set [3] is souris. Nature of the data set: Electroshock. The conditions noted are these: doses faibles et moyennes. The method, then: as §1
Les essais sont effectués sur des lots de 10 souris (par dose) 0,5 h après l'administration du CRL 40933.

The test system of data set [4] is souris. Put plainly: Spontaneous motility (actimeter). The method, then:
as §1
Une demi-heure, après avoir reçu le CRL 40933, les souris (6 par dose, 12 témoins) sont placées en actimètre où leur motilité est enregistrée pendant 30 min.

Data set [5] deals with souris. Put plainly: Motility reduced by habituation to the enclosure. The conditions noted are these: doses élevées. On the procedure:
as §1
Après 18 h de séjour dans les actimètres, les souris (6 par dose, 12 témoins) reçoivent le CRL 40933. Elles sont aussitôt replacées dans leurs enceintes respectives et, 30 min plus tard, on enregistre leur motilité pendant 30 min.

In data set [6] the test system is souris. Put plainly: Motility reduced by hypoxic aggression (acute hypobaric anoxia). The conditions noted are these: doses élevées. The method, then: as §1
Une demi-heure après avoir reçu le CRL 40933, les souris (10 par dose, 20 témoins) sont soumises à une anoxie hypobare aiguë [dépression de 600 mm Hg (soit environ 8 x 10^4 pascals) en 90 s, puis détente de 45 s], puis elles sont placées en actimètre où leur motilité est enregistrée pendant 10 min.

Data set [7] deals with souris. Nature of the data set: Interaction with barbital (sleep). The conditions noted are these: dose not stated. The method, then:
as §1
Une demi-heure après l'administration de CRL 40933, des lots de 10 souris reçoivent une injection intrapéritonéale de 220 mg/kg de barbital.

The test system of data set [8] is souris. Put plainly: Behavioural despair (forced immersion). The conditions noted are these: souris; dose not stated. On the procedure: as §1
Une demi-heure après avoir reçu le CRL 40933, des lots de 10 souris par dose sont placés dans un espace restreint rempli d'eau sur une hauteur de 6 cm; on note la durée d'immobilité entre la 2e et la 6e minute suivant l'immersion.

For the molecule `CC(C)(C)NC(=O)C[S+]([O-])C(c1ccccc1)c1ccccc1` (stereo not drawn) [Exemple 3], in the data set on SNC, the “Activité sur le SNC” value is “stimulant”.
Turning to `CCNC(=O)C[S+]([O-])C(c1ccccc1)c1ccccc1` (stereo not drawn) [Exemple 4], in the data set on SNC, the “Activité sur le SNC” value is “sédatif”. Also, the “Action sur la durée du sommeil induit par le pentobarbital (50 mg/kg i.p.) effet” value was “(a)” in the data set on souris mâle [1] (dose 64 mg/kg i.p., 0,5 h before pentobarbital); “(a)” with souris mâle [1] (dose 128 mg/kg i.p., 0,5 h before pentobarbital); “(a)” in the data set on souris mâle [1] (dose 256 mg/kg i.p., 0,5 h before pentobarbital). Moreover, the DL-O result in the data set on souris mâle [2] is given as “supérieure à 512 mg/kg”. Also, in the data set with souris mâles, the “ensemble d'effets de type sédatif” value is “sédation, hypo- réactivité, hypoagressivité, hypothermie”. The “effet convulsivant de l'électrochoc” value in the data set on souris [3] is “antagonisme”. The activité motrice result with souris [4] (doses faibles et moyennes) is listed as “absence de toute diminution d'activité motrice”. Moreover, the “motilité spontanée” value with souris [4] (doses élevées) is given as “hypermotilité discrète”. The “activité chez la souris habituée à son enceinte” value in the data set on souris [5] is listed as “reprise modérée de l'activité”. For the same molecule, the “récupération motrice après hypoxie” value with souris [6] is “amélioration sensible”. In addition, the sommeil barbiturique result in the data set on souris [7] was “effet antagoniste”. The “hypomotilité de "désespoir"” value in the data set with souris [8] was “diminution”.
On to `O=C(C[S+]([O-])C(c1ccccc1)c1ccccc1)N1CCOCC1` (stereo not drawn) [Exemple 6], for which the “Activité sur le SNC” value in the data set with SNC is “sédatif”.
